Measurements as given in patent US9663460B2, “Sulfur derivatives as chemokine receptor modulators” (ALLERGAN, INC., priority 2010, dated 2017).
pIC50: −log10 of the molar value.

Biological target: CCR2 (Homo sapiens (Human), UniProt P41597)
Assay: Calcium activity assayed on the FLIPR Tetra in HEK-Gqi5 cells stably expressing CCR2
Assay type: cell-based
Settings: FLIPR Tetra calcium assay

CCR2, sequence (P41597 whole entry, species assumed): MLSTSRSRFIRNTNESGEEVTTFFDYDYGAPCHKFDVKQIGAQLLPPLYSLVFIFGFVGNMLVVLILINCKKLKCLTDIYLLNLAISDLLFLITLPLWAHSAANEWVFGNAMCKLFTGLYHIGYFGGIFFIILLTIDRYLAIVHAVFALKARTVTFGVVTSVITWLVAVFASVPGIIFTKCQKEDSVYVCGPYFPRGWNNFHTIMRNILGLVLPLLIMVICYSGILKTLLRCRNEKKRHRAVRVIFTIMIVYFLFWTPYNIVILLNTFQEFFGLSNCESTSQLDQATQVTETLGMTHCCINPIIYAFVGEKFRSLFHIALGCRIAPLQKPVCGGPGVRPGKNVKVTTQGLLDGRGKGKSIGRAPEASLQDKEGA

Row | SMILES | CCR2 % ANTAGONISM | pIC50
1 | O=S(=O)(Cc1ncccn1)c1ccc(Cl)cc1NS(=O)(=O)c1cc2ccccc2o1 [N-{5-chloro-2-[(pyrimidin-2-ylmethyl)sulfonyl]phenyl}-1-benzofuran-2-sulfonamide] | 104% | 6.82
2 | O=S(=O)(Nc1cc(Cl)ccc1SCc1ncccn1)c1cc2ccccc2o1 [N-{5-chloro-2-[(pyrimidin-2-ylmethyl)thio]phenyl}-1-benzofuran-2-sulfonamide] | 100% | 6.26
3 | O=S(=O)(Nc1cc(Cl)ccc1[S+]([O-])C(F)(F)F)c1cc2ccccc2o1 (stereo not drawn) [N-{5-chloro-2-[(trifluoromethyl)sulfinyl]phenyl}-1-benzofuran-2-sulfonamide] | 89% | 7.72
4 | O=S(=O)(Nc1cc(Cl)ccc1S(=O)(=O)C(F)(F)F)c1cc2ccccc2o1 [N-{5-chloro-2-[(trifluoromethyl)sulfonyl]phenyl}-1-benzofuran-2-sulfonamide] | 91% | 7.14
5 | O=S(=O)(Nc1cc(Cl)ccc1SC(F)(F)F)c1cc2ccccc2o1 [N-{5-chloro-2-[(trifluoromethyl)thio]phenyl}-1-benzofuran-2-sulfonamide] | 92% | 6.48
6 | O=[N+]([O-])c1cccc(C[S+]([O-])c2ccc(F)cc2NS(=O)(=O)c2cc3ccccc3o2)c1 (stereo not drawn) [N-{5-fluoro-2-[(3-nitrobenzyl)sulfinyl]phenyl}-1-benzofuran-2-sulfonamide] | 96% | 6.50
7 | O=[N+]([O-])c1cccc(CS(=O)(=O)c2ccc(F)cc2NS(=O)(=O)c2cc3ccccc3o2)c1 [N-{5-fluoro-2-[(3-nitrobenzyl)sulfonyl]phenyl}-1-benzofuran-2-sulfonamide] | 81% | 6.16
8 | COc1ccc([S+]([O-])Cc2cccc([N+](=O)[O-])c2)c(NS(=O)(=O)c2cc3ccccc3o2)c1 (stereo not drawn) [N-{5-methoxy-2-[(3-nitrobenzyl)sulfinyl]phenyl}-1-benzofuran-2-sulfonamide] | 84% | 6.07
9 | CCOC(=O)C[S+]([O-])c1ccc(Cl)cc1NS(=O)(=O)c1ccc(Cl)c(C(F)(F)F)c1 (stereo not drawn) [ethyl {[4-chloro-2-({[4-chloro-3-(trifluoromethyl)phenyl]sulfonyl}amino)phenyl]sulfinyl}acetate] | 79% | 6.85
10 | COC(=O)CC[S+]([O-])c1ccc(Cl)cc1NS(=O)(=O)c1ccc(Cl)c(C(F)(F)F)c1 (stereo not drawn) [methyl 3-{[4-chloro-2-({[4-chloro-3-(trifluoromethyl)phenyl]sulfonyl}amino)phenyl]sulfinyl}propanoate] | 82% | 6.97
11 | CC(C)(C)OC(=O)Nc1nc(C[S+]([O-])c2ccc(Cl)cc2NS(=O)(=O)c2cc3ccccc3o2)cs1 (stereo not drawn) [tert-butyl {4-[({2-[(1-benzofuran-2-ylsulfonyl)amino]-4-chlorophenyl}sulfinyl)methyl]-1,3-thiazol-2-yl}carbamate] | 101% | 5.62

The next lines start with the values.

Row | CCR2 % ANTAGONISM | pIC50 | SMILES
12 | 72% | – | CC(C)(C)OC(=O)Nc1nc(CS(=O)(=O)c2ccc(Cl)cc2NS(=O)(=O)c2cc3ccccc3o2)cs1 [tert-butyl {4-[({2-[(1-benzofuran-2-ylsulfonyl)amino]-4-chlorophenyl}sulfonyl)methyl]-1,3-thiazol-2-yl}carbamate]
13 | 29% | 5.54 | CC(C)(C)OC(=O)Nc1cc(CS(=O)(=O)c2ccc(Cl)cc2NS(=O)(=O)c2cc3ccccc3o2)cc[n+]1[O-] [tert-butyl {4-[({2-[(1-benzofuran-2-ylsulfonyl)amino]-4-chlorophenyl}sulfonyl)methyl]-1-oxidopyridin-2-yl}carbamate]
14 | 76% | 5.65 | CC(C)(C)OC(=O)Nc1cc(CS(=O)(=O)c2ccc(Cl)cc2NS(=O)(=O)c2cc3ccccc3o2)ccn1 [tert-butyl {4-[({2-[(1-benzofuran-2-ylsulfonyl)amino]-4-chlorophenyl}sulfonyl)methyl]pyridin-2-yl}carbamate]
15 | 28% | 5.62 | CC(C)(C)OC(=O)Nc1nc(CSc2ccc(Cl)cc2NS(=O)(=O)c2cc3ccccc3o2)cs1 [tert-butyl {4-[({2-[(1-benzofuran-2-ylsulfonyl)amino]-4-chlorophenyl}thio)methyl]-1,3-thiazol-2-yl}carbamate]
16 | 40% | 5.70 | CC(C)(C)OC(=O)Nc1cc(CSc2ccc(Cl)cc2NS(=O)(=O)c2cc3ccccc3o2)ccn1 [tert-butyl {4-[({2-[(1-benzofuran-2-ylsulfonyl)amino]-4-chlorophenyl}thio)methyl]pyridin-2-yl}carbamate]
17 | 82% | 6.28 | CC(C)(C)OC(=O)Nc1cccc(C[S+]([O-])c2ccc(Cl)cc2NS(=O)(=O)c2cc3ccccc3o2)n1 (stereo not drawn) [tert-butyl {6-[({2-[(1-benzofuran-2-ylsulfonyl)amino]-4-chlorophenyl}sulfinyl)methyl]pyridin-2-yl}carbamate]
